SMILES strings stand for the structures.

Results on 27 compounds are retold here after patent publication US20240246937A1 (MERCK SHARP & DOHME LLC, priority 2021, published 2024).

recombinant IL4I1, sequence (Q96RQ9 22-567): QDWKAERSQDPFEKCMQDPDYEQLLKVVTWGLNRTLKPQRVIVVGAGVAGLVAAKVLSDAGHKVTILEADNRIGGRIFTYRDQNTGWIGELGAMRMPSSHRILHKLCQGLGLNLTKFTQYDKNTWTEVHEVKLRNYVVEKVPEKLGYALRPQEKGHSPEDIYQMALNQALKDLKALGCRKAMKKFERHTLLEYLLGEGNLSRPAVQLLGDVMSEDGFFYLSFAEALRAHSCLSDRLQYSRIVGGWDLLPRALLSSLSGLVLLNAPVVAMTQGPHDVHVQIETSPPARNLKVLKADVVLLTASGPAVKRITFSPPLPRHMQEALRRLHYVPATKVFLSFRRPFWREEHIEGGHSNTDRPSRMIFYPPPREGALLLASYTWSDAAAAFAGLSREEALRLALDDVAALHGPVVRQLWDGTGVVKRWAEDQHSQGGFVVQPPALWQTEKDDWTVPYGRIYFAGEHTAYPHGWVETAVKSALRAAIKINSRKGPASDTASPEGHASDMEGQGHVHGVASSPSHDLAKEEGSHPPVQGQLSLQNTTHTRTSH

This assay concerns the target recombinant IL4I1 (Homo sapiens (Human), UniProt Q96RQ9). In words: IL4I1 Enzymatic Assay (Amplex Red/HRP coupled fluorescence detection of H2O2). The class given is biochemical. The note with it: 240 min; recombinant IL4I1, four-hour pre-incubation with compound. The procedure, abridged: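 Ten-point, 1:3 compound titrations were fitted by four-parameter sigmoidal regression to give EC50. Resorufin fluorescence (544/590 nm) from Amplex Red/HRP-coupled H2O2 detection was read 120 min after adding 1 mM each aromatic amino acid to 1 nM IL4I1, following a 4 h compound pre-incubation in pH 7.0 Hepes buffer.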
With `O=c1c(=O)n(C2CCC2)ccn1Cc1cc(-c2ccccc2F)on1` [Example 57, 1-cyclobutyl-4-((5-(2-fluorophenyl)isoxazol-3-yl)methyl)-1,4-dihydropyrazine-2,3-dione], the EC50 is 3 nM.

In the case of `O=c1c(=O)n([C@H]2C[C@H]3C[C@H]3C2)ccn1Cc1ccc(-c2ccccc2)nn1` [Example 58, 1-((cis)-bicyclo[3.1.0]hexan-3-yl)-4-((6-phenylpyridazin-3-yl)methyl)-1,4-dihydropyrazine-2,3-dione], the EC50 is 4 nM.

Consider `O=c1c(=O)n(C2CCCC2)ccn1Cc1ccc(-c2cccc(F)c2)nn1` [Example 59, 1-cyclopentyl-4-((6-(3-fluorophenyl)pyridazin-3-yl)methyl)-1,4-dihydropyrazine-2,3-dione], for which the EC50 came out at 5 nM.

Take `O=C1C(=O)N(C2CCCC2)CCN1Cc1cc(-c2ccccc2F)on1` [Example 60, 1-cyclopentyl-4-((5-(2-fluorophenyl)isoxazol-3-yl)methyl)piperazine-2,3-dione]: the EC50 turned out to be 10 nM.

`O=c1c(=O)n(C2CCCC2)ccn1Cc1cc(-c2ccccc2F)on1` [Example 61, 1-cyclopentyl-4-((5-(2-fluorophenyl)isoxazol-3-yl)methyl)-1,4-dihydropyrazine-2,3-dione]: the EC50 amounted to 5 nM.

As for `O=C1C(=O)N([C@H]2C[C@H]3C[C@H]3C2)CCN1Cc1ccc(-c2ccccc2F)nn1` [Example 62, 1-((cis)-bicyclo[3.1.0]hexan-3-yl)-4-((6-(2-fluorophenyl)pyridazin-3-yl)methyl)piperazine-2,3-dione], the EC50 came out at 4 nM.

Take `O=c1c(=O)n(C2CCC2)ccn1Cc1ccc(-c2cccc(F)c2)nn1` [Example 63, 1-cyclobutyl-4-((6-(3-fluorophenyl)pyridazin-3-yl)methyl)-1,4-dihydropyrazine-2,3-dione]: the EC50 was 3 nM.

For the compound `O=c1c(=O)n(C23CC(C2)C3)ccn1Cc1ccc(-c2cccc(F)c2)nn1` [Example 64, 1-(bicyclo[1.1.1]pentan-1-yl)-4-((6-(3-fluorophenyl)pyridazin-3-yl)methyl)-1,4-dihydropyrazine-2,3-dione], the EC50 worked out at 4 nM.

For `O=C1C(=O)N(C23CC(C2)C3)CCN1Cc1ccc(-c2cccc(F)c2)nn1` [Example 65, 1-(bicyclo[1.1.1]pentan-1-yl)-4-((6-(3-fluorophenyl)pyridazin-3-yl)methyl)piperazine-2,3-dione], the EC50 turned out to be 4 nM.

With `O=C1C(=O)N(C23CC(C2)C3)CCN1Cc1ccc(-c2ccccc2F)nn1` [Example 66, 1-(bicyclo[1.1.1]pentan-1-yl)-4-((6-(2-fluorophenyl)pyridazin-3-yl)methyl)piperazine-2,3-dione], the EC50 was found to be 7 nM.

`O=c1c(=O)n([C@H]2C[C@H]3C[C@H]3C2)ccn1Cc1cc(-c2cccc(F)c2)on1` [Example 67, 1-((cis)-bicyclo[3.1.0]hexan-3-yl)-4-((5-(3-fluorophenyl)isoxazol-3-yl)methyl)-1,4-dihydropyrazine-2,3-dione]: the EC50 is 1 nM.

On to `O=c1c(=O)n(C23CC(C2)C3)ccn1Cc1nnc(-c2ccccc2F)s1` [Example 68, 1-(bicyclo[1.1.1]pentan-1-yl)-4-((5-(2-fluorophenyl)-1,3,4-thiadiazol-2-yl)methyl)-1,4-dihydropyrazine-2,3-dione], for which the EC50 turned out to be 5 nM.

`O=C1C(=O)N(C2CCC2)CCN1Cc1ncc(-c2ccccc2)s1` [Example 69, 1-cyclobutyl-4-((5-phenylthiazol-2-yl)methyl)piperazine-2,3-dione]: the EC50 stood at 3 nM.

`O=C1C(=O)N(C2CCC2)CCN1Cc1cnc(-c2ccccc2)s1` [Example 70, 1-cyclobutyl-4-((2-phenylthiazol-5-yl)methyl)piperazine-2,3-dione]: the EC50 amounted to 4 nM.

Regarding `O=c1c(=O)n(C2CCC2)ccn1Cc1ccc(-c2cccc(F)c2F)nn1` [Example 71, 1-cyclobutyl-4-((6-(2,3-difluorophenyl)pyridazin-3-yl)methyl)-1,4-dihydropyrazine-2,3-dione], the EC50 stood at 6 nM.

`O=c1c(=O)n(C2CCC2)ccn1Cc1ccc(-c2ccccc2F)nc1` [Example 72, 1-cyclobutyl-4-((6-(2-fluorophenyl)pyridin-3-yl)methyl)-1,4-dihydropyrazine-2,3-dione]: the EC50 came out at 2 nM.

With `O=C1C(=O)N(C2CCC2)CCN1Cc1cnc(-c2ccccc2F)cn1` [Example 73, 1-cyclobutyl-4-((5-(2-fluorophenyl)pyrazin-2-yl)methyl)piperazine-2,3-dione], the EC50 worked out at 9 nM.

For the compound `O=c1c(=O)n(C2CCC2)ccn1Cc1cnc(-c2ccccc2F)cn1` [Example 74, 1-cyclobutyl-4-((5-(2-fluorophenyl)pyrazin-2-yl)methyl)-1,4-dihydropyrazine-2,3-dione], the EC50 stood at 5 nM.

Consider `O=c1c(=O)n(C23CC(C2)C3)ccn1Cc1cnc(-c2ccccc2F)cn1` [Example 75, 1-(bicyclo[1.1.1]pentan-1-yl)-4-((5-(2-fluorophenyl)pyrazin-2-yl)methyl)-1,4-dihydropyrazine-2,3-dione], for which the EC50 was determined as 7 nM.

In the case of `O=C1C(=O)N(C23CC(C2)C3)CCN1Cc1cc(-c2cccc(F)c2)on1` [Example 76, 1-(bicyclo[1.1.1]pentan-1-yl)-4-((5-(3-fluorophenyl)isoxazol-3-yl)methyl)piperazine-2,3-dione], the concentration giving a half-maximal response (EC50) was 4 nM.

For `O=c1c(=O)n(C23CC(C2)C3)ccn1Cc1cc(-c2ccccc2F)on1` [Example 77, 1-(bicyclo[1.1.1]pentan-1-yl)-4-((5-(2-fluorophenyl)isoxazol-3-yl)methyl)-1,4-dihydropyrazine-2,3-dione], the EC50 was 3 nM.

For `O=C1C(=O)N(C2CCC2)CCN1Cc1cnc(-c2ccccc2F)s1` [Example 78, 1-cyclobutyl-4-((2-(2-fluorophenyl)thiazol-5-yl)methyl)piperazine-2,3-dione], the EC50 is 6 nM.

Regarding `O=C1C(=O)N(C2CCC2)CCN1Cc1cnc(-c2cccc(F)c2)s1` [Example 79, 1-cyclobutyl-4-((2-(3-fluorophenyl)thiazol-5-yl)methyl)piperazine-2,3-dione], the EC50 was 5 nM.

As for `[2H]c1c([2H])c([2H])c(-c2ccc(CN3CCN(C4CCC4)C(=O)C3=O)nn2)c([2H])c1[2H]` [Example 80, 1-cyclobutyl-4-((6-(phenyl-d5)pyridazin-3-yl)methyl)piperazine-2,3-dione], the EC50 was determined as 15 nM.

Take `O=C1C(=O)N(C2CCC2)CCN1Cc1ccc(-c2cc(Br)ccc2F)nn1` [Example 81, 1-((6-(5-bromo-2-fluorophenyl)pyridazin-3-yl)methyl)-4-cyclobutylpiperazine-2,3-dione]: the EC50 is 60 nM.

In the case of `CC1(n2ccn(Cc3nnc(-c4cccc(F)c4)s3)c(=O)c2=O)CCC1` [Example 82, 1-((5-(3-fluorophenyl)-1,3,4-thiadiazol-2-yl)methyl)-4-(1-methylcyclobutyl)-1,4-dihydropyrazine-2,3-dione], the EC50 was 10 nM.

Take `CC1(n2ccn(Cc3nnc(-c4ccc(F)cc4)s3)c(=O)c2=O)CCC1` [Example 83, 1-((5-(4-fluorophenyl)-1,3,4-thiadiazol-2-yl)methyl)-4-(1-methylcyclobutyl)-1,4-dihydropyrazine-2,3-dione]: the EC50 was 8 nM.
